Results published in patent publication US12161634B2, “Pyruvate kinase R (PKR) activating compositions” (Novo Nordisk Health Care AG, priority 2020, dated 2024).

What was measured:
[1] = Dynamic vapor sorption (DVS); assay type: physicochemical
Description: Dynamic Vapor Sorption (DVS) was measured with a Surface Measurement System (SMS) DVS Intrinsic.

[2] = Polymorph screening (solid form by XRPD); assay type: physicochemical
Description: Polymorph screening experiments were performed using a series of crystallization and solid transition methods.
Solid vapor diffusion experiments were conducted using 13 different solvents. Approximately 15 mg of Compound 1 (Type A) was weighed into a 4-mL vial, which was placed into a 20-mL vial with 3 mL of volatile solvent. The 20-mL vial was sealed with a cap and kept at RT for 7 days, allowing solvent vapor to interact with the sample.
Slurry experiments were conducted […] in different solvent systems. About 15 mg of Compound 1 (Type A) was suspended in 0.3 mL of solvent in a 2-mL glass vial. After the suspension was stirred magnetically for 7 days at 4° C., RT or 50° C., the remaining solids were isolated for XRPD analysis (Method A).
Approximately 15 mg of Compound 1 (Type A) was dissolved in an appropriate solvent to obtain a clear solution in a 4-mL vial. This solution was then placed into a 20-mL vial with 3 mL of anti-solvent. The 20-mL vial was sealed with a cap and kept at RT, allowing sufficient time for organic vapor to interact with the solution. After 7 days, solids were isolated for XRPD analysis (Method A).
Compound 1 (Type A) was weighed into a 3 mL glass vial with the addition of the corresponding solvent or solvent mixture. After being vortexed and ultrasonically shaken, the suspension was filtered, and the filtrate was transferred to a clean 4 mL shell vial. A small amount of Compound 1 (Type A) was added as a seed crystal. Subsequently, the shell vial was sealed with a polyethylene plug with one pinhole and enclosed in a 20 mL glass vial containing 3 mL of the anti-solvent at room temperature for liquid vapor diffusion. The solid forms resulting from the experiments were characterized by XRPD analysis (Method C).
Slow evaporation experiments were performed under 4 conditions. Briefly, about 15 mg of Compound 1 (Type A) was mixed with 1.0-2.5 mL of solvent in a 4-mL glass vial. If the solids were not dissolved completely, suspensions were filtered using a PTFE membrane (pore size of 0.2 μm) and the filtrates were used for the follow-up steps. The visually clear solutions were subjected to evaporation at RT with vials sealed by Parafilm® (3-5 pinholes).
Compound 1 (Type A) was weighed into a 3 mL glass vial with the addition of the corresponding solvent or solvent mixture. After being vortexed and ultrasonically shaken, the suspension was filtered, and the filtrate was transferred to a clean 4 mL shell vial. A small amount of Compound 1 (Type A) was added as a seed crystal. Subsequently, the shell vial was sealed with a polyethylene plug with one pinhole and placed in a fume hood at room temperature for slow evaporation. The solid forms resulting from the experiments were characterized by XRPD analysis (Method C).
A total of 8 anti-solvent addition experiments were carried out. About 15 mg of Compound 1 (Type A) was dissolved in 0.2-4.0 mL of solvent to obtain a clear solution. The solution was magnetically stirred followed by addition of 0.2 mL anti-solvent per step until precipitate appeared or the total amount of anti-solvent reached 15.0 mL. The obtained precipitate was isolated for XRPD analysis (Method A).
A total of 2 reverse anti-solvent addition experiments were carried out. About 15 mg of Compound 1 (type A) was dissolved in 0.2 mL solvent to obtain a clear solution. The solution was added into 2 mL anti-solvent. The obtained precipitate was isolated for XRPD analysis (Method A). Results summarized in Table 16 indicated Type A or a mixture of Type A and amorphous material were generated.
Compound 1 (Type A) was weighed into a 3 mL glass vial with the addition of the corresponding solvent or solvent mixture. After being vortexed and ultrasonically shaken to accelerate dissolution, the suspension was placed in a biochemical incubator and equilibrated at 50° C. for 30 minutes. […]

SMILES: O=C([C@H](CO)c1ccccc1)N1CC2=C(C1)CN(S(=O)(=O)c1cnc3c(c1)OCCO3)C2 [Type A, (S)-1-(5-[2H,3H-[1,4]dioxino[2,3-b]pyridine-7-sulfonyl]-1H,2H,3H,4H,5H,6H-pyrrolo[3,4-c]pyrrol-2-yl)-3-hydroxy-2-phenylpropan-1-one]
- hygroscopicity ([1]; DVS at RT): hygroscopic
- water uptake from 40% RH to 80% RH ([1]; DVS, RT): 1.0%
- water uptake up to 40% RH ([1]; DVS, up to 40% RH (ambient condition), RT): 3.4%
- form change before and after DVS test ([1]; RT, determined by XRPD): No form change
- Solid Form ([2]; liquid vapor diffusion RT 7 days, solvent 1,4-Dioxane, anti-solvent EtOAc): Type A
- Solid Form ([2]; liquid vapor diffusion RT 7 days, solvent 1,4-Dioxane, anti-solvent MTBE): Type A
- Solid Form ([2]; liquid vapor diffusion RT 7 days, solvent 1,4-Dioxane, anti-solvent MeOH): Type B
- Solid Form ([2]; liquid vapor diffusion RT 7 days, solvent 1,4-Dioxane, anti-solvent Toluene): Type A
- Solid Form ([2]; liquid vapor diffusion RT 7 days, solvent 1,4-Dioxane, anti-solvent n-Heptane): Type F
- Solid Form ([2]; liquid vapor diffusion RT 7 days, solvent Acetone, anti-solvent H2O): Type B
- Solid Form ([2]; liquid vapor diffusion RT 7 days, solvent Acetone, anti-solvent IPA): Type A
- Solid Form ([2]; liquid vapor diffusion RT 7 days, solvent Acetone, anti-solvent MIBK): Type A
- Solid Form ([2]; liquid vapor diffusion RT 7 days, solvent CHCl3, anti-solvent 2-MeTHF): Type A
- Solid Form ([2]; liquid vapor diffusion RT 7 days, solvent CHCl3, anti-solvent EtOH): Type A
- Solid Form ([2]; liquid vapor diffusion RT 7 days, solvent CHCl3, anti-solvent IPAc): Type A
- Solid Form ([2]; liquid vapor diffusion RT 7 days, solvent THF, anti-solvent EtOAc): Type A
- Solid Form ([2]; liquid vapor diffusion RT 7 days, solvent THF, anti-solvent MeOH): Type A
- Solid Form ([2]; liquid vapor diffusion, seeded, RT, 3.0 mg in 0.5 mL MeOH, anti-solvent MTBE): Type B
- Solid Form ([2]; liquid vapor diffusion, seeded, RT, 4.9 mg in 0.5 mL Acetone, anti-solvent MTBE): Type A
- Solid Form ([2]; liquid vapor diffusion, seeded, RT, 10.0 mg in 0.5 mL ACN, anti-solvent MTBE): Type B
- Solid Form ([2]; liquid vapor diffusion, seeded, RT, 10.1 mg in 0.5 mL ACN, anti-solvent H2O): Type B
- Solid Form ([2]; liquid vapor diffusion, seeded, RT, 10.4 mg in 0.5 mL THF, anti-solvent n-pentane): Type D
- Solid Form ([2]; liquid vapor diffusion, seeded, RT, 10.8 mg in 0.1 mL DMSO, anti-solvent IPA): Type A
- Solid Form ([2]; liquid vapor diffusion, seeded, RT, 10.9 mg in 0.1 mL DMF, anti-solvent IPAc): Type I
- Solid Form ([2]; liquid vapor diffusion, seeded, RT, 11.5 mg in 0.5 mL THF, anti-solvent MeOH): Type D
- Solid Form ([2]; liquid vapor diffusion, seeded, RT, 12.1 mg in 0.5 mL THF, anti-solvent EtOAc): Type M
- Solid Form ([2]; liquid vapor diffusion, seeded, RT, 17.6 mg in 0.5 mL 1,4-dioxane, anti-solvent n-heptane): Type A
- Solid Form ([2]; liquid vapor diffusion, seeded, RT, 30.8 mg in 0.2 mL NMP, anti-solvent MTBE): Type J
- Solid Form ([2]; liquid vapor diffusion, seeded, RT, 31.9 mg in 0.2 mL DMSO, anti-solvent H2O): Type A
- Solid Form ([2]; liquid vapor diffusion, seeded, RT, 32.1 mg in 0.2 mL DMF, anti-solvent Toluene): Type H
- Solid Form ([2]; liquid vapor diffusion, seeded, RT, 34.3 mg in 0.3 mL CHCl3, anti-solvent n-pentane): Type A
- Solid Form ([2]; slow cooling 50° C. to 5° C., 15.4 mg in 1.5 mL 2-MeTHF): Type K
- Solid Form ([2]; slow cooling 50° C. to 5° C., 15.7 mg in 1.5 mL EtOH): Type A
- Solid Form ([2]; slow cooling 50° C. to 5° C., 20.3 mg in 1.5 mL EtOAc): Type B
- Solid Form ([2]; slow cooling 50° C. to 5° C., 20.5 mg in 1.5 mL MeOH): Type B
- Solid Form ([2]; slow cooling 50° C. to 5° C., 39.7 mg in 1.0 mL THF/H2O (1:1 v/v), then kept at 5° C. for 22 days): Type L
- Solid Form ([2]; slow cooling 50° C. to 5° C., 40.3 mg in 0.8 mL ACN/H2O (2:1 v/v)): Type B
- Solid Form ([2]; slow cooling 50° C. to 5° C., 40.3 mg in 1.0 mL Acetone/n-heptane (3:1 v/v)): Type A
- Solid Form ([2]; slow cooling 50° C. to 5° C., 40.4 mg in 1.0 mL 1,4-dioxane/H2O (1:1 v/v)): Type B
- Solid Form ([2]; slow cooling 50° C. to 5° C., 40.6 mg in 1.0 mL Acetone/H2O (2:1 v/v)): Type B
- Solid Form ([2]; slow evaporation, seeded, RT, 3.0 mg in 1.0 mL MeOH): Type B
- Solid Form ([2]; slow evaporation, seeded, RT, 3.2 mg in 0.5 mL EtOAc/2-MeTHF (1:1 v/v)): Type B
- Solid Form ([2]; slow evaporation, seeded, RT, 3.2 mg in 1.0 mL EtOAc): Type B
- Solid Form ([2]; slow evaporation, seeded, RT, 4.5 mg in 0.5 mL Acetone/EtOH (1:1 v/v)): Type A
- Solid Form ([2]; slow evaporation, seeded, RT, 4.6 mg in 0.5 mL Acetone): Type A
- Solid Form ([2]; slow evaporation, seeded, RT, 4.7 mg in 0.5 mL Acetone/EtOAc (1:1 v/v)): Type A
- Solid Form ([2]; slow evaporation, seeded, RT, 5.0 mg in 0.5 mL ACN/MIBK (1:1 v/v)): Type A
- Solid Form ([2]; slow evaporation, seeded, RT, 5.2 mg in 0.5 mL MeOH/Acetone (1:1 v/v)): Type B
- Solid Form ([2]; slow evaporation, seeded, RT, 7.3 mg in 0.5 mL DCM/IPAc (1:1 v/v)): Type A
- Solid Form ([2]; slow evaporation, seeded, RT, 9.6 mg in 0.5 mL THF/H2O (5:1 v/v)): Type B
- Solid Form ([2]; slow evaporation, seeded, RT, 9.8 mg in 0.5 mL ACN/H2O (5:1 v/v)): Type B
- Solid Form ([2]; slow evaporation, seeded, RT, 10.0 mg in 0.5 mL ACN): Type B
- Solid Form ([2]; slow evaporation, seeded, RT, 10.1 mg in 0.5 mL THF): Type D
- Solid Form ([2]; slow evaporation, seeded, RT, 10.7 mg in 0.5 mL THF/EtOH (1:1 v/v)): Type A
- Solid Form ([2]; slow evaporation, seeded, RT, 10.8 mg in 0.5 mL DCM/n-heptane (1:1 v/v)): Type A
- Solid Form ([2]; slow evaporation, seeded, RT, 11.1 mg in 0.5 mL ACN/EtOAc (1:1 v/v)): Type A
- Solid Form ([2]; slow evaporation, seeded, RT, 13.0 mg in 0.5 mL Acetone/H2O (5:1 v/v)): Type B
- Solid Form ([2]; slow evaporation, seeded, RT, 13.8 mg in 0.5 mL ACN/EtOH (1:1 v/v)): Type A
- Solid Form ([2]; slow evaporation, seeded, RT, 14.4 mg in 0.5 mL ACN/2-MeTHF (1:1 v/v)): Type A
- Solid Form ([2]; slow evaporation, seeded, RT, 17.3 mg in 0.5 mL ACN/IPA (4:1 v/v)): Type A
- Solid Form ([2]; slow evaporation, seeded, RT, 22.7 mg in 0.5 mL CHCl3/IPA (1:1 v/v)): Type A
- Solid Form ([2]; slow evaporation, seeded, RT, 22.9 mg in 0.5 mL CHCl3/toluene (1:1 v/v)): Type A
- Solid Form ([2]; slow evaporation, seeded, RT, 27.7 mg in 0.5 mL ACN/n-heptane (10:1 v/v)): Type B
- Solid Form ([2]; slow evaporation, seeded, RT, 32.9 mg in 0.5 mL 1,4-dioxane/H2O (4:1 v/v)): Gel
- Solid Form ([2]; slurry of Type A 7 days, 1,4-Dioxane/MeOH (v/v, 1:1), 50° C.): Type A
- Solid Form ([2]; slurry of Type A 7 days, 1,4-Dioxane/Toluene (v/v, 1:1), 50° C.): Type A
- Solid Form ([2]; slurry of Type A 7 days, 1,4-Dioxane, 50° C.): Type A
- Solid Form ([2]; slurry of Type A 7 days, 1,4-Dioxane, RT): Type C
- Solid Form ([2]; slurry of Type A 7 days, 2-MeTHF, 50° C.): Type A
- Solid Form ([2]; slurry of Type A 7 days, ACN/IPA (v/v, 1:3), 50° C.): Type A
- Solid Form ([2]; slurry of Type A 7 days, ACN, 4° C.): Type A
- Solid Form ([2]; slurry of Type A 7 days, Acetone/H2O (v/v, 1:3), 50° C.): Type B
- Solid Form ([2]; slurry of Type A 7 days, Acetone/IPAc (v/v, 1:3), 50° C.): Type A
- Solid Form ([2]; slurry of Type A 7 days, Acetone, RT): Type A
- Solid Form ([2]; slurry of Type A 7 days, CHCl3/EtOAc (v/v, 1:3), 50° C.): Type A
- Solid Form ([2]; slurry of Type A 7 days, CHCl3/MeOH (v/v, 1:3), 50° C.): Type A
- Solid Form ([2]; slurry of Type A 7 days, CHCl3/Toluene (1/3), 4° C.): Type B + Type A
- Solid Form ([2]; slurry of Type A 7 days, DCM/EtOH (v/v, 1:3), 50° C.): Type A
- Solid Form ([2]; slurry of Type A 7 days, DCM/n-Heptane (1/3), 4° C.): Type A
- Solid Form ([2]; slurry of Type A 7 days, DMSO/H2O (1/9), RT): Type B
- Solid Form ([2]; slurry of Type A 7 days, EtOAc, 50° C.): Type A
- Solid Form ([2]; slurry of Type A 7 days, EtOH, 50° C.): Type A
- Solid Form ([2]; slurry of Type A 7 days, H2O, 50° C.): Type B
- Solid Form ([2]; slurry of Type A 7 days, IPA, 50° C.): Type A
- Solid Form ([2]; slurry of Type A 7 days, IPAc, 50° C.): Type A
- Solid Form ([2]; slurry of Type A 7 days, MIBK, 50° C.): Type A
- Solid Form ([2]; slurry of Type A 7 days, MTBE, 50° C.): Type A
- Solid Form ([2]; slurry of Type A 7 days, MeOH, 50° C.): Type B
- Solid Form ([2]; slurry of Type A 7 days, THF, 4° C.): Type D
- Solid Form ([2]; slurry of Type A 7 days, THF, 50° C.): Type A
- Solid Form ([2]; slurry of Type A 7 days, Toluene, 50° C.): Type A
- Solid Form ([2]; slurry of Type A 7 days, n-Heptane, 50° C.): Type A
